Source: patent US9266847B2, “Compounds, probes, and methods of synthesis and methods of imaging COX-2-associated diseases” (Vanderbilt University, priority 2012, dated 2016)

Target: T1, ovine COX2 (Ovis aries, UniProt P79208)
T1 sequence (P79208 17-603): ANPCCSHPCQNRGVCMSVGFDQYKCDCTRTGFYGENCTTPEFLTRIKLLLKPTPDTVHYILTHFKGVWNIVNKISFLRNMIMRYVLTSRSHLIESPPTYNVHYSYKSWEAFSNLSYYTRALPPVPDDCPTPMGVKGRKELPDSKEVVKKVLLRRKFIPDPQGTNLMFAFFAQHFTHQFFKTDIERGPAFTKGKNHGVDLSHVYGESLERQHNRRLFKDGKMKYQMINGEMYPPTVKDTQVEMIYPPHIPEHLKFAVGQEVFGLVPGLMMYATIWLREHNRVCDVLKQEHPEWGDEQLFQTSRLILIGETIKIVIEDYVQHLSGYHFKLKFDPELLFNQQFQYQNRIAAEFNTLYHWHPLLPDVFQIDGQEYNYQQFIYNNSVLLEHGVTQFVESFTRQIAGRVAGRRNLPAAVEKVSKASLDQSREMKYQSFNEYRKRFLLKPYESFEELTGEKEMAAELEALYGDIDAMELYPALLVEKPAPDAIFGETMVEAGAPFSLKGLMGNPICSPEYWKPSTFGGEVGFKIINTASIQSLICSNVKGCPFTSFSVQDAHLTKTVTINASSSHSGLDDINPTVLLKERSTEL
Test: IC50 assay, Cayman colorimetric COX inhibitor screening assay kit
Conditions: FIG. 2, 10 duplicate concentrations
Procedure: Various concentrations of the ^19F-COX2 compound ranging from 0.1 μM to 0.3 nM were dispensed into designated wells within a 96-well microtiter plate at a final volume of 220 μL per well. Each well contained an assay buffer, heme, and ovine COX2 provided in Cayman's colorimetric COX inhibitor screening assay kit. […] Five minutes after incubation of all assay components at 25° C., an arachidonic acid substrate at a final concentration of 100 μM and the colorimetric co-substrate N,N,N′,N′-tetramethyl-p-phenylenediamine were added to each well. The plate was then incubated at 25° C. for an additional 5 min before reading the absorbance at 590 nm using a plate reader. Absorbance of the duplicate assay of each well was averaged and subtracted from the 100% initial activity sample, after which it was divided by the 100% initial activity sample and multiplied by 100 to arrive at the percentage of inhibition.

Cc1csc(Cc2c3cccccc-3c(C(=O)c3ccc(F)cc3)c2C)n1 [^19F-COX2]
Hill slope of the inhibition curve: −0.62
